Values after ≈ are worked out from the molar mass of the structure shown. Structures can show the parent of a compound that is named as a salt. Where two headings read alike, the source gives them in different places.
Legend:
[1] = test system: U2-OS ACE2 cells; assay: Cytotoxicity on U2-OS ACE2 cells (Hoechst signal); details: 20 hours
[2] = test system: SARS-CoV-2 coronavirus; assay: Activity against SARS-CoV-2 coronavirus on U2-OS ACE2 cells (S-Fuse, GFP signal); format: cell-based; details: Severe acute respiratory syndrome coronavirus 2, U2OS; SARS-CoV-2, U2-OS ACE2 cells, MOI 0.1, 20 hours
[3] = Cytotoxicity, microtetrazolium test (MTT); details: dog, MDCK cells, CC50 (MDCK), mean ±SD
[4] = Acute oral toxicity, fixed dose method (OECD 420); details: for GHS hazard class: acute oral toxicity in mice, UN GHS classification; for Died / Survived: female BALB/c mice, intragastric
[5] = test system: MDCK cells; assay: Cytotoxicity, microtetrazolium test (MTT); details: 48 h, mean ±SD
[6] = test system: MDCK cells

Compound	melting point [°C]	CC50 at 48 h [3] [µg/mL]	further results
COC(=O)c1c(N(Cc2ccccc2)C(C)=O)sc2cc(O)ccc12 [Example 4, Methyl 2-[acetyl(benzyl)amino]-6-hydroxy-1-benzothiophene-3-carboxylate]	165 to 167	200 (≈ 563 µM)	Cytotoxicity [1]: Non-toxic up to 2500 μM; IC50 [2]: 10.6 µM
COC(=O)c1c(N(Cc2ccccc2F)C(C)=O)sc2c(Cl)c(O)ccc12 [Example 23, Methyl 2-[acetyl(2-fluorobenzyl)amino]-7-chloro-6-hydroxy-1-benzothiophene-3-carboxylate]		> 300	GHS hazard class [4]: 5; Died ([4]; 2000 mg/kg): 0; Survived ([4]; 2000 mg/kg): 4
COC(=O)c1c(N(Cc2ccccc2)C(C)=O)sc2c(CN(C)C)c(O)ccc12 [Example 50, Methyl 2-[acelyl (benzyl)amino-7-[(dimethylamino)methyl]-6-hydroxy-1-benzothiophene-3-carboxylate]		182 (≈ 441 µM)	Cytotoxicity [1]: Non-toxic up to 2500 μM; IC50 [2]: 9.08 µM
COC(=O)c1c(N(Cc2ccccc2F)C(C)=O)sc2c(CN(C)C)c(O)ccc12 [Example 52]		180 ± 16 (≈ 418 µM)	GHS hazard class [4]: 5; Died ([4]; 2000 mg/kg): 0; Survived ([4]; 2000 mg/kg): 4
COC(=O)c1c(N(Cc2ccc(F)cc2F)C(C)=O)sc2c(CN(C)C)c(O)ccc12 [Example 55]	118 to 122	> 300	Cytotoxicity [1]: Non-toxic up to 2500 μM; IC50 [2]: 15.6 µM
COC(=O)c1c(N(CCc2ccccc2F)C(C)=O)sc2c(CN(C)C)c(O)ccc12 [Example 56, Methyl 2-{acetyl[2-(2-fluorophenyl)ethyl]amino}-7-[(dimethylamino)methyl]-6-hydroxy-1-benzothiophene-3-carboxylate]	114 to 120	> 300	
COC(=O)c1c(N(Cc2ccccc2C)C(C)=O)sc2c(CN(C)C)c(O)ccc12 [Example 58]	155 to 160	> 300	
COC(=O)c1c(N(Cc2ccccc2C(F)(F)F)C(C)=O)sc2c(CN(C)C)c(O)ccc12 [Example 59]	184 to 188	> 300	
COC(=O)c1c(N(Cc2ccccc2C#N)C(C)=O)sc2c(CN(C)C)c(O)ccc12 [Example 60]	178 to 182	> 300	
COC(=O)c1c(N(Cc2ccccc2)C(C)=O)sc2c(CN(C)C)c(O)ccc12 [Example 61, Methyl 2-[acetyl(benzyl)amino-7-[(dimethylamino)methyl]-6-hydroxy-1-benzothiophene-3-carboxylate hydrochloride]			GHS hazard class [4]: 4; Died ([4]; 300 mg/kg): 0; Survived ([4]; 300 mg/kg): 4; Died ([4]; 2000 mg/kg): 1; Survived ([4]; 2000 mg/kg): 1; CC50 (MDCK) ([5]; hydrochloride): >300 µg/mL
COC(=O)c1c(N(Cc2ccc(F)cc2)C(C)=O)sc2c(CN(C)C)c(O)ccc12 [Example 62, Methyl 2-[acetyl(4-fluorobenzyl)amino-7-[(dimethylamino)methyl]-6-hydroxy-1-benzothiophene-3-carboxylate hydrochloride]		92 ± 7	Cytotoxicity [1]: Non-toxic up to 2500 μM; IC50 [2]: 11.3 µM
CCN(CC)Cc1c(O)ccc2c(C(=O)OC)c(N(Cc3ccccc3)C(C)=O)sc12 [Example 64, hydrochloride]		148 ± 11	Cytotoxicity [1]: Non-toxic up to 2500 μM; IC50 [2]: 9.12 µM
COC(=O)c1c(N(Cc2ccccc2)C(C)=O)sc2c(CN3CCN(C)CC3)c(O)ccc12 [Example 65, Methyl 2-[acetyl(benzyl)amino-6-hydroxy-7-[(4-methylpiperazin-1-yl)methyl]-1-benzothiophene-3-carboxylate hydrochloride]		18.7 ± 1.6	Cytotoxicity [1]: Non-toxic up to 2500 μM; IC50 [2]: 9.8 µM
CC(=O)N(Cc1ccccc1)c1sc2c(Cl)c(O)ccc2c1C(=O)O [Example 66, 2-[acetyl(benzyl)amino]-7-chloro-6-hydroxy-1-benzothiophene-3-carboxylic acid]	240 to 245	> 300	
CC(=O)N(Cc1ccccc1)c1sc2cc(O)ccc2c1C(=O)O [Example 67, 2-[acetyl(benzyl)amino]-6-hydroxy-1-benzothiophene-3-carboxylic acid]	130 to 135	> 300	
CC(=O)N(Cc1ccccc1Cl)c1sc2c(Cl)c(O)ccc2c1C(=O)O [Example 68, 2-[acetyl(2-chlorobenzyl)amino]-7-chloro-6-hydroxy-1-benzothiophene-3-carboxylic acid]	265 to 270	65 ± 4 (≈ 158 µM)	

Compound	melting point [°C]	CC50 at 48 h [3] [µg/mL]	further results
CC(=O)N(Cc1ccc(F)cc1F)c1sc2c(Cl)c(O)ccc2c1C(=O)O [Example 71, 2-[acetyl(2,4-difluorobenzyl)amino]-7-chloro-6-hydroxy-1-benzothiophene-3-carboxylic acid]	238 to 242	210 ± 16 (≈ 510 µM)	
CNC(=O)c1c(N(Cc2ccccc2)C(C)=O)sc2c(Cl)c(O)ccc12 [Example 72, 2-[acetyl(benzyl)amino]-7-chloro-6-hydroxy-N-methyl-1-benzothiophene-3-carboxamide]		160 ± 11 (≈ 411 µM)	GHS hazard class [4]: 5; Died ([4]; 2000 mg/kg): 0; Survived ([4]; 2000 mg/kg): 4
CNC(=O)c1c(N(Cc2ccccc2)C(C)=O)sc2cc(O)ccc12 [Example 73, 2-[acetyl(benzyl)amino]-6-hydroxy-N-methyl-1-benzothiophene-3-carboxamide]		> 300	Cytotoxicity [1]: Non-toxic up to 2500 μM; IC50 [2]: 23 µM; GHS hazard class [4]: 5; Died ([4]; 2000 mg/kg): 0; Survived ([4]; 2000 mg/kg): 4
CNC(=O)c1c(N(Cc2ccccc2Cl)C(C)=O)sc2c(Cl)c(O)ccc12 [Example 74, 2-[acetyl(2-chlorobenzyl)amino]-7-chloro-6-hydroxy-N-methyl-1-benzothiophene-3-carboxamide]	200 to 202	32 ± 4 (≈ 75.6 µM)	
CNC(=O)c1c(N(Cc2ccccc2F)C(C)=O)sc2c(Cl)c(O)ccc12 [Example 75, 2-[acetyl(2-fluorobenzyl)amino]-7-chloro-6-hydroxy-N-methyl-1-benzothiophene-3-carboxamide]	108 to 112	28 ± 4 (≈ 68.8 µM)	
CNC(=O)c1c(N(Cc2ccccc2F)C(C)=O)sc2cc(O)ccc12 [Example 76, 2-[acetyl(2-fluorobenzyl)amino]-6-hydroxy-N-methyl-1-benzothiophene-3-carboxamide]	105 to 112	> 300	
CNC(=O)c1c(N(Cc2ccc(F)cc2)C(C)=O)sc2c(Cl)c(O)ccc12 [Example 77]	192 to 195	32.2 ± 2.4 (≈ 79.1 µM)	
CNC(=O)c1c(N(Cc2ccc(F)cc2F)C(C)=O)sc2c(Cl)c(O)ccc12 [Example 78, 2-[acetyl(2,4-difluorobenzyl)amino]-7-chloro-6-hydroxy-N-methyl-1-benzothiophene-3-carboxamide]	125 to 130	68 ± 5 (≈ 160 µM)	
CCNC(=O)c1c(N(Cc2ccccc2)C(C)=O)sc2cc(O)ccc12 [Example 79, 2-[acetyl(benzyl)amino]-6-hydroxy-N-ethyl-1-benzothiophene-3-carboxamide]	138 to 142	250 ± 21 (≈ 679 µM)	
CCCNC(=O)c1c(N(Cc2ccccc2)C(C)=O)sc2cc(O)ccc12 [Example 80, 2-[acetyl(benzyl)amino]-6-hydroxy-N-propyl-1-benzothiophene-3-carboxamide]	85 to 90	240 ± 16 (≈ 627 µM)	
CC(=O)N(Cc1ccccc1)c1sc2cc(O)ccc2c1C(N)=O [Example 81, 2-[acetyl(benzyl)amino]-6-hydroxy-1-benzothiophene-3-carboxamide]	110 to 115	251 ± 19 (≈ 737 µM)	
CC(=O)N(Cc1ccccc1)c1sc2c(Cl)c(O)ccc2c1C(=O)N1CCCCC1 [Example 82, N-benzyl-N-[7-chloro-6-hydroxy-3-(piperidin-1-ylcarbonyl)-1-benzothien-2-yl]acetamide]	95 to 100	16.3 ± 0.8 (≈ 36.8 µM)	
CNC(=O)c1c(N(Cc2ccccc2F)C(C)=O)sc2c(CN(C)C)c(O)ccc12 [Example 84, 2-[acetyl(2-fluorobenzyl)amino]-7-[(dimethylamino)methyl]-6-hydroxy-N-methyl-1-benzothiophene-3-carboxamide]	122 to 126	> 300	
CSc1nc2nnc([N+](=O)[O-])c(=O)n2[nH]1 [Triazavirin, Methylthionitrooxodihydro-triazolotriazinide sodium]			CC50 (MDCK) [6]: 298 ± 22 µg/mL
CCOC(=O)c1c(CSc2ccccc2)n(C)c2cc(Br)c(O)c(CN(C)C)c12 [Umifenovir, reference compound]		16 (≈ 33.5 µM)	Cytotoxicity [1]: Non-toxic up to 2500 μM; IC50 [2]: 76 µM
Pentandioic acid imidazolylethanamide [Ingavirin, reference compound]			CC50 (MDCK) [5]: 300 ± 12 µg/mL

Reference: patent US20240174629A1 (OTCPHARM JSC, priority 2021, published 2024)
